Consider one substance from patent US20160144021A1, “Vaccine Composition And Method Of Use” (MEDIMMUNE, LLC, priority 2013, published 2016).

Read-outs that look alike come from different tables or passages of the source.

Data set [1] relates to RSV sF protein. Description: IFNγ ELISPOT of splenocytes, naive Sprague Dawley rats. It counts as in vivo. Conditions: Day 46, 4 days post RSV challenge. Here is the method:
Systemic cellular immune responses to vaccination were evaluated in all available animals at Day 46, 4 days post RSV challenge. For each of the groups, individual splenocyte samples were prepared. T-cell readouts were assessed by ELISPOT counts of IFNγ-secreting cells following a 36-48 hour restimulation with RSV sF. Significance was calculated using GraphPad Prism 1-way ANOVA with either Tukey or Bonferroni post test with a significance cutoff of p<0.05.

Data set [2] in a line: Lung histopathology after RSV challenge, naive BALB/c mice. The format is in vivo. The following applies: H&E lung sections day 4 post RSV challenge. How it is done: Lung sections (5 micron) were prepared using a microtome from paraffin-embedded formalin-fixed lung lobes harvested at day 4 post RSV challenge. Sections stained with hematoxylin and eosin were digitally scanned and examined by a licensed pathologist. Lung sections were evaluated for pulmonary lesion characteristics such as presence of bronchiolar hyperplasia, alveolitis, eosinophilic infiltrate and infiltration of the peribronchiolar/perivascular spaces.

For data set [3], the system named is RSV sF protein. The data set is described as follows: IFNγ and IL-4 ELISPOT of splenocytes, naive cotton rats. The following applies: splenocytes 4 days post challenge, RSV sF restimulation. It counts as in vivo. How it is done: Paired antibodies for cotton rat IFNγ (#DY565) or IL-4 (#DY584) obtained in R&D DuoSet ELISA Systems were used in ELISPOT assay formats for the evaluation of cotton rat cellular immune responses. 96 well PVDF plates (Millipore, Billerica, Mass.) were coated overnight with kit provided capture antibody (anti-IFNγ or anti-IL-4, respectively) at 10 μg/mL in PBS. Plates were blocked with cRPMI-5 for 2 hours. Cells were then incubated on blocked coated plates in cRPMI-5 for 36-48 hours in triplicate with media, RSV sF ([…]), or ConA (5 μg/mL) as a positive control. Following incubation cells were washed away, plates were incubated with included biotinylated detection antibody (1 μg/mL in PBS+1% BSA) followed by streptavidin-HRP (Mabtech, Cincinnati, Ohio) and 3-amino-9-ethylcarbazole (AEC, Vector Labs, Burlingame, Calif.). Plates were read and analyzed using a CTL ImmunoSpot reader and software (Cellular Technology Ltd).

The test system of data set [4] is IL-5, IL-13, IFNγ, IL-17, eotaxin. Description: Cytokines in lung homogenates after RSV challenge, naive BALB/c mice. The format is in vivo. The arrangement: pulmonary eotaxin levels (mean): unit not given here. Here is the method: Lung homogenates were clarified by centrifugation prior to use. […] F-specific splenic cytokine production was determined by subtracting media alone values from F stimulated values.

For data set [5], the system named is RSV sF protein.
In data set [6] the test system is RSV A2. Description: RSV microneutralization of sera, highly (2x) RSV seropositive BALB/c mice. The format is in vivo. Conditions: very small amounts of antigen. How it is done:
(§1) One hundred three female BALB/c mice (Charles River), ages 6-8 weeks old, were divided into 13 groups. Group 1 had 7 mice and groups 2 through 13 had 8 mice. Following anaesthetization groups 1 through 12 were dosed with 1×10^6 plaque forming units (PFU) in 100 μL of live RSV via an intranasal (IN) route on Day 0 and Day 35. Group 13 was not exposed to RSV. On Day 56, groups 1 through 11 were immunized with placebo (PBS) or vaccine article via an intramuscular (IM) route following anesthesia with isoflurane. The vaccine articles were formulated in a total of 100 μL with 50 μL given in each hind limb. Group 12 was anesthetized with isoflurane and immunized with 1×10^6 PFU in 100 μL of live RSV via an IN route. […] Sera were obtained from retro orbital blood collection at study days 0, 28, 56 70 and 84, separated from whole blood and stored at −20° C. until evaluated. Spleens from 4 animals in each group were harvested for T cell assays on Day 67, 11 days post immunization, or at day 88, 4 days post challenge. Lung cytokines quantified at 4 days after challenge in individual lung homogenates by luminex assay (Milipore).

In data set [7] the test system is RSV sF. The data set is described as follows: Serum anti-F IgG and isotype ELISA, naive Sprague Dawley rats. The format is in vivo. Conditions: Day 42. How it is done:
(§2) In a subsequent study, the immunogenicity and protection following a prime-boost regimen of RSV-SF was evaluated. 40 naive female Sprague Dawley rats were divided into designated vaccine cohorts of 5-6 animals per cohort. Briefly, test groups were given RSV sF (10 μg or 100 μg per animal) without adjuvant or RSV sF (10 μg or 100 μg per animal) with GLA-SE (2.5 μg in 2% SE). Negative control groups were dosed with placebo (PBS buffer) or adjuvant GLA-SE (2.5 μg/2%) without RSV sF. […] Groups 1-6 were inoculated IM with 500 μL of designated vaccine article on Day 0 and Day 22, while Group 7 was inoculated IN with 200 μL of RSV A2 virus on day 0 only. […] Rats were euthanized at 4 days post challenge on Day 46, the day of peak viral replication determined from Study 1. Lungs (excluding 1 lobe which was formalin-fixed) and noses were homogenized and quantified for viral titers.
Serological responses to vaccination were evaluated at 6 hours post immunization, D22, and D42 for all animals and at Day 14 for a subset of 3 animals per group. […] Serum obtained 6 hours post-immunization was evaluated for cytokine titers by multiplexed ELISA. Serum from Days 14, 22, and 42 were measured for total anti-F IgG ELISA endpoint dilution titers. Day 42 serum was evaluated for the specific contribution of IgG1, IgG2a, and IgG2b anti-F responses by ELISA endpoint dilution titers. […]

Data set [8] deals with RSV A2. Description: Lung and nose RSV titers after challenge, vaccinated Sprague Dawley rats. The following applies: 10 or 100 μg RSV sF, 4 days post challenge. The format is in vivo. Here is the method:
as §2

Data set [9] concerns RSV sF. The data set is described as follows: Serum RSV F-specific IgG, IgG1, IgG2a ELISA, highly seropositive BALB/c mice. It counts as in vivo. Conditions: day 84. Here is the method:
as §1

Setting [10] is: lung homogenates 4 days post RSV challenge.

With “RSV sF: RSV soluble F protein, amino acids 1-524 of the RSV A2 F sequence lacking the transmembrane domain, given without adjuvant”, the “F-specific IFNγ ELISPOT responses” value in the data set on RSV sF protein [1] (10 μg RSV sF) is 64.00 SFU/million cells; with RSV sF protein [1] (100 μg RSV sF) it was 87.78 SFU/million cells. Further, the “pulmonary inflammation / lesion scores” value in [2] is given as “increased pulmonary lesion scores”. Also, in the data set with RSV sF protein [3], the “F-specific IFNγ ELISPOT response (mean)” value came to 58 SFU/million cells. Also, the “mean IFNγ to IL-5 ratio in lung homogenates” value in data set [4] (4 days post RSV challenge, ratio >1.0 = more Th1-type) is on record as 0.3. Further, the “IL-5 and IL-13 in the lungs” value in data set [4] (setting [10]) is “detected”. For the same substance, in [4] (setting [10]), the “pulmonary eotaxin levels (mean)” value is given as 911. Moreover, the “animals with ≧4-fold rise in IgG titers at Day 183 compared to Day 169” value with RSV sF protein [5] (4 animals per group) is on record as 2 of 4. For the same substance, the “geomean anti-F IgG titer” value in the data set on RSV sF protein [5] (Day 42, 100 μg RSV sF at days 0 and 28) is given as 10.45±2.68 log 2; in the data set with RSV sF protein [5] (Day 183, 14 days post booster at Day 169), 12.55±2.16 log 2. Besides, the “neutralization level lower than that of the highest adjuvanted RSV sF dose of 50 μg” value with RSV A2 [6] is “approximately 6 fold”. The F-specific isotype balance result with RSV sF [7] was “higher IgG1 titers than IgG2b titers”. Moreover, the “animals per group with titers below the limit of detection” value with RSV A2 [8] is 1-2. The “Th bias from RSV sF-specific IgG1 and IgG2a serum titers” value with RSV sF [9] is “maintained the Th1 bias”.
